This note sets out measurements from patent US6500853B1, “Inhibitors of phospholipase enzymes” (Genetics Institute, LLC, priority 1998, dated 2002).

Read-outs that look alike come from different tables or passages of the source.

This test has as its target T1, cPLA2 (Homo sapiens, UniProt P47712).
T1 sequence (P47712 1-749): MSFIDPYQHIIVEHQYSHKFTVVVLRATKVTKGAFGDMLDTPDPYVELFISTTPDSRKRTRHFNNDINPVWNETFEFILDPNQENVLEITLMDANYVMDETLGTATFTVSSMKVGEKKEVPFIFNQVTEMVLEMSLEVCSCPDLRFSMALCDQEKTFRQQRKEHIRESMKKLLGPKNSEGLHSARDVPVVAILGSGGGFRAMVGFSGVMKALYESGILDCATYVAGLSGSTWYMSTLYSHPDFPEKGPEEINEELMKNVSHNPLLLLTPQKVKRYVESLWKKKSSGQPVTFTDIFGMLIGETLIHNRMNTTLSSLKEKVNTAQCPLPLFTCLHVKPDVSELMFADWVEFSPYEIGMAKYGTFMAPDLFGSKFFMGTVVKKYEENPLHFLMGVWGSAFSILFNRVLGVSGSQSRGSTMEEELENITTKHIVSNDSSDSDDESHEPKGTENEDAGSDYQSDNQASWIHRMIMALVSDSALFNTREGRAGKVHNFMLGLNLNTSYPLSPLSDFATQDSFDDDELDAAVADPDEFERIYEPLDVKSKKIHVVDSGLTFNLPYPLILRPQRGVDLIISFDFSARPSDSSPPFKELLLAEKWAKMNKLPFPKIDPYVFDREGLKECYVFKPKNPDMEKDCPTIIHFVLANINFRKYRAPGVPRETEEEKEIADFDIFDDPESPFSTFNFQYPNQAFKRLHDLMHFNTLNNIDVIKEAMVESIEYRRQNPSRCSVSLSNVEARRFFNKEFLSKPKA
The test is described as follows: Coumarin Assay (cPLA2 inhibition). Type of test: biochemical. As to conditions: for inhibition at 12 µM: CONCENTRATION 12 micromolar; for inhibition at 50 µM: CONCENTRATION 50 micromolar; for inhibition at 100 µM: CONCENTRATION 100 micromolar; for inhibition at 20 µM: CONCENTRATION 20 micromolar. The protocol: Table I reports data for the compounds described in the examples above in cPLA2 inhibition assays (described below). In the data columns of Tables I and II, assay results are reported as a percent inhibition at the concentration specified.
7-hydroxycoumarinyl 6-heptenoate was used as a monomeric substrate for cPLA2 as reported previously (Huang, Z. et al., 1994, Nalytical Biochemistry 222, 110-115). Inhibitors were mixed with 200 μL assay buffer (80 mM Heped, pH 7.5, 1 mM EDTA) containing 60 μM 7-hydroxycoumarinyl 6-heptenoate. The reaction was initiated by adding 4 μg cPLA2 in 50 μL assay buffer. Hydrolysis of the 7-hydroxycounarimyl 6-heptenoate ester was monitored in a fluorometer by exciting at 360 nm and monitoring emission at 460 nm. Enzyme activity is proportional to the increase in emission at 460 nm per minute. In the presence of a cPLA2 inhibitor, the rate of increase is less. The percent inhibition for corresponding concentrations of compounds herein in this Coumarin assay are provided below in Table I.

Where [1] appears, read: CONCENTRATION 2.5 micromolar, read-out: PERCENT INHIBITION @.

Take `COc1cc(C(=O)NS(=O)(=O)c2ccccc2C)ccc1Cc1cn(C(c2ccccc2)c2ccccc2)c2ccc(NC(=O)C3CCCC3)cc12` [Example 43, N-{1-benzhydryl-3-[2-methoxy-4-({[(2-methylphenyl)sulfonyl]amino}carbonyl)benzyl]-1H-indol-5-yl}cyclopentanecarboxamide]: for the setting “read-out: PERCENT INHIBITION @”, the inhibition (as a rule, the share of the control response that was lost under treatment) at 12 µM stood at 50%. Further, the inhibition at 14 µM (CONCENTRATION 14 micromolar, read-out: PERCENT INHIBITION @) was 50%.
For `O=C(Nc1cccc(C(=O)O)c1)C(=O)c1cn(Cc2ccc(COc3cc(C(F)(F)F)cc(C(F)(F)F)c3)cc2)c2ccccc12` [Example 60, 3-({2-[1-(4-{[3,5-bis(trifluoromethyl)phenoxy]methyl}benzyl)-1H-indol-3yl]-2oxoacetyl}amino)benzoic acid], the inhibition at 12.5 µM (CONCENTRATION 12.5 micromolar, read-out: PERCENT INHIBITION @) amounted to 50%.
Turning to `CCCn1cc(Cc2ccc(C(=O)O)cc2OC)c2cc(NC(=O)OC3CCCC3)ccc21` [Example 1, 4-[(5-{[(cyclopentyloxy)carbonyl]amino}-1-propyl-1H-indol-3-yl)methyl]-3-methoxybenzoic acid], where the note is “read-out: PERCENT INHIBITION @”, the inhibition at 50 µM turned out to be 7% and the inhibition at 100 µM came out at 18%. For the same compound, the inhibition at 170 µM (CONCENTRATION 170 micromolar, read-out: PERCENT INHIBITION @) amounted to 50%.
Take `O=C(O)CC(=O)Nc1ccc(Cc2cn(C(c3ccccc3)c3ccccc3)c3cc(Cl)ccc23)cc1` [Example 124, sodium 3-{4-[(1-benzhydryl-6-chloro-1H-indol-3-yl)methyl]anilino}-3-oxopropanoic acid]: the inhibition at 1.3 µM (CONCENTRATION 1.3 micromolar, read-out: PERCENT INHIBITION @) was 50%.
`COc1cc(C(=O)NS(=O)(=O)c2ccccc2C)ccc1Cc1cn(Cc2ccc3ccccc3c2)c2ccc(NC(=O)OC3CCCC3)cc12` [Example 23, Cyclopentyl N-[3-[2-methoxy-4-({[(2-methylphenyl)sulfonyl]amino}carbonyl)benzyl]-1-(2-naphthylmethyl)-1H-indol-5-yl]carbamate]: for the setting “CONCENTRATION 10 micromolar, read-out: PERCENT INHIBITION @”, the inhibition at 10 µM was determined as 50%. Also, under “read-out: PERCENT INHIBITION @”, the inhibition at 20 µM was 58%.
As to `Cc1cc(Cc2cn(C(c3ccccc3)c3ccccc3)c3cc(Cl)ccc23)cc(C)c1OCC(=O)O` [Example 117, 2-{4-[(1-benzhydryl-6-chloro-1H-indol-3-yl)methyl]-2,6-dimethylphenoxy}acetic acid], the inhibition at 1.6 µM (CONCENTRATION 1.6 micromolar, read-out: PERCENT INHIBITION @) was found to be 50%.
In the case of `COc1ccc(C(c2ccccc2)n2cc(Cc3ccc(C(=O)O)cc3OC)c3ccc(Cl)cc32)cc1` (stereo not shown) [Example 133, ′4-({6-chloro-1-[(4-methoxyphenyl)(phenyl)methyl]-1H-indol-3-yl}methyl)-3-methoxybenzoic acid], the “PERCENT INHIBITION @” value (CONCENTRATION 0.3 micromolar) turned out to be 50%.
Consider `COc1cc(C(=O)NS(=O)(=O)c2ccccc2C)ccc1Cc1cn(C(c2ccccc2)c2ccccc2)c2ccc(NC(=O)OC3CCCC3)cc12` [Example 19, Cyclopentyl N-{1-benzhydryl-3-[2-methoxy-4-({[(2-methylphenyl)sulfonyl]amino}carbonyl)benzyl]-1H-indol-5-yl}carbamate], for which, under “CONCENTRATION 2.2 micromolar, read-out: PERCENT INHIBITION @”, the inhibition at 2.2 µM is 50%. Also, where the note is “CONCENTRATION 4.2 micromolar, read-out: PERCENT INHIBITION @”, the inhibition at 4.2 µM was found to be 50%. Also, where the note is “CONCENTRATION 5.8 micromolar, read-out: PERCENT INHIBITION @”, the inhibition at 5.8 µM amounted to 50%. For the same compound, the inhibition at 6.25 µM (CONCENTRATION 6.25 micromolar, read-out: PERCENT INHIBITION @) came out at 52%. The inhibition at 7.8 µM (CONCENTRATION 7.8 micromolar, read-out: PERCENT INHIBITION @) was 50%. In addition, where the note is “CONCENTRATION 9 micromolar, read-out: PERCENT INHIBITION @”, the inhibition at 9 µM was 50%. Also, for the setting “CONCENTRATION 11 micromolar, read-out: PERCENT INHIBITION @”, the inhibition at 11 µM worked out at 50%. Besides, for the setting “read-out: PERCENT INHIBITION @”, the inhibition at 12 µM stood at 50%.
For `COc1cc(C(=O)NS(=O)(=O)c2nn(C)c(=NC(C)=O)s2)ccc1Cc1cn(C(c2ccccc2)c2ccccc2)c2ccc(NC(=O)OC3CCCC3)cc12` [Example 29, cyclopentyl N-(3-{4-[({[5-(acetylimino)-4-methyl-4,5-dihydro1,3,4-thiadiazol-2-yl]sulfonyl}amino)carbonyl]-2-methoxybenzyl}-1-benzhydryl-1H-indol-5-yl)carbamate], under setting [1], the inhibition at 2.5 µM was found to be 50%. Moreover, the inhibition at 3.4 µM (CONCENTRATION 3.4 micromolar, read-out: PERCENT INHIBITION @) is 50%. Moreover, where the note is “CONCENTRATION 6 micromolar, read-out: PERCENT INHIBITION @”, the inhibition at 6 µM came out at 87%.
As to `COc1cc(OCC(=O)O)ccc1Cc1cn(C(c2ccccc2)c2ccccc2)c2cc(Cl)ccc12` [Example 118, 2-{4-[(1-benzhydryl-6-chloro-1H-indol-3-yl)methyl]-3-methoxyphenoxy}acetic acid], under “CONCENTRATION 0.6 micromolar, read-out: PERCENT INHIBITION @”, the inhibition at 0.6 µM stood at 50%.
For the compound `Cc1c(CCS(=O)(=O)c2ccc(C(=O)O)cc2)c2cc(Cl)ccc2n1C(c1ccccc1)c1ccccc1` [Example 147, 4-{[2-(1-benzhydryl-5-chloro-2-methyl-1H-indol-3-yl)ethyl]sulfonyl}benzoic acid], the inhibition at 2.4 µM (Conc 2.4 uM, read-out: % Inhibition) is 50%.
On to `Cc1c(C(=O)Nc2cc(C(=O)O)cc(C(=O)O)c2)c2cc(OCc3ccccc3)ccc2n1Cc1ccc2ccccc2c1` [Example 110, 5-({[5-(benzyloxy)-2-methyl-1-(2-naphthylmethyl)-1H-indol-3-yl]carbonyl}amino)isophthalic acid], for which, for the setting “CONCENTRATION 46 micromolar, read-out: PERCENT INHIBITION @”, the inhibition at 46 µM amounted to 50%. In addition, the inhibition at 47 µM (CONCENTRATION 47 micromolar, read-out: PERCENT INHIBITION @) is 50%.
Consider `O=Cc1c(CCOc2ccc(C(=O)O)cc2)c2cc(Cl)ccc2n1C(c1ccccc1)c1ccccc1` [Example 150, 4-[2-(1-benzhydryl-5-chloro-2-formyl-1H-indol-3-yl)ethoxy]benzoic acid], for which the inhibition at 2.5 µM (Conc 2.5 uM, read-out: % Inhibition) came to 50%.
As for `O=C(O)Cc1cn(CC2CC2)c2ccc(Br)cc12` [Example 77, 2-[5-bromo-1-(cyclopropylmethyl)-1H-indol-3-yl]acetic acid], the inhibition at 160 µM (CONCENTRATION 160 micromolar, read-out: PERCENT INHIBITION @) was found to be 50%. In addition, the inhibition at 180 µM (CONCENTRATION 180 micromolar, read-out: PERCENT INHIBITION @) was determined as 50%.
`O=C(O)COc1ccc(Cc2cn(C(c3ccccc3)c3ccccc3)c3cc(Cl)ccc23)cc1` [Example 119, 2-{4-[(1-benzhydryl-6-chloro-1H-indol-3-yl)methyl]phenoxy}acetic acid]: the inhibition at 2.5 µM under setting [1] came out at 50%.
As for `Cc1c(C(=O)O)c2cc(OCc3ccccc3)ccc2n1Cc1ccc(C(F)(F)F)cc1C(F)(F)F` [Example 107, 5-(benzyloxy)-1-[2,4-bis(trifluoromethyl)benzyl]-2-methyl-1H-indole-3-carboxylic acid], the inhibition at 37 µM (CONCENTRATION 37 micromolar, read-out: PERCENT INHIBITION @) stood at 50%. Moreover, the inhibition at 50 µM (read-out: PERCENT INHIBITION @) is 43%. The inhibition at 71 µM (CONCENTRATION 71 micromolar, read-out: PERCENT INHIBITION @) came to 50%. Besides, under “CONCENTRATION 80 micromolar, read-out: PERCENT INHIBITION @”, the inhibition at 80 µM was 50%.
For `COc1cc(C(=O)NS(=O)(=O)c2ccccc2C)ccc1Cc1cn(CC2CC2)c2ccc(NC(=O)OC3CCCC3)cc12` [Example 21, Cyclopentyl N-{1-(cyclopropylmethyl)-3-[2-methoxy-4-({[(2-methylphenyl)sulfonyl]amino}carbonyl)benzyl]-1H-indol-5-yl}carbamate], the inhibition at 20 µM (read-out: PERCENT INHIBITION @) worked out at 50%.
As to `O=C(O)Cc1cn(Cc2ccccc2)c2ccc(-c3ccccc3)cc12` [Example 81, 2-(1-benzyl-5-phenyl-1H-indol-3-yl)acetic acid], the inhibition at 70 µM (CONCENTRATION 70 micromolar, read-out: PERCENT INHIBITION @) was 50%. Moreover, the inhibition at 100 µM (read-out: PERCENT INHIBITION @) was 46%.
